From patent publication US20230263822A1, “MODULATION OF FACTOR 11 EXPRESSION” (Ionis Pharmaceuticals, Inc., priority 2008, published 2023)

Legend:
[1] = system: human Factor 11 mRNA; test: Dose-dependent inhibition of human Factor 11 in HepG2 cells, lipofectin 2.34-75 nM (Example 5); format: cell-based; details: for percent inhibition of human Factor 11 mRNA relative to untreated control cells: ~16 hours
Method: Cells were plated at a density of 10,000 cells per well and transfected using lipofectin reagent with 2.34 nM, 4.69 nM, 9.375 nM, 18.75 nM, 37.5 nM, and 75 nM concentrations of antisense oligonucleotide, as specified in Table 11. After a treatment period of approximately 16 hours, RNA was isolated from the cells and human Factor 11 mRNA levels were measured by quantitative real-time PCR. Human Factor 11 primer probe set RTS 2966 was used to measure mRNA levels. Factor 11 mRNA levels were adjusted according to total RNA content, as measured by RIBOGREEN. Results are presented as percent inhibition of human Factor 11, relative to untreated control cells.

[2] = design: species or system Sprague-Dawley rats; details: rat, in vivo
Method: Three days after the last dose, the rats were sacrificed and livers and kidneys were collected for analysis.
The concentration of the full-length oligonucleotide as well as the total oligonucleotide concentration (including the degraded form) was measured. The method used is a modification of previously published methods (Leeds et al., 1996; Geary et al., 1999) which consist of a phenol-chloroform (liquid-liquid) extraction followed by a solid phase extraction. An internal standard (ISIS 355868, a 27-mer 2′-O-methoxyethyl modified phosphorothioate oligonucleotide, […], designated herein as SEQ ID NO: 270) was added prior to extraction. […] The results are presented in Tables 77 and 78, expressed as μg/g liver or kidney tissue. Half-lives were then calculated using WinNonlin software ([…]).

[3] = system: human Factor 11 mRNA; test: Dose-dependent inhibition of human Factor 11 in HepG2 cells, lipofectin 9.375-75 nM (Example 4); format: cell-based; details: for percent inhibition of Factor 11 at 9.375 nM / percent inhibition of Factor 11 at 18.75 nM / percent inhibition of Factor 11 at 37.5 nM / percent inhibition of Factor 11 at 75 nM: relative to untreated control cells
Outline: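 HepG2 cells transfected via lipofectin with antisense oligonucleotide at 9.375, 18.75, 37.5 or 75 nM for about 16 h. Factor 11 mRNA quantified by real-time RT-PCR (primer probe set RTS 2966) and normalized to total RNA (RIBOGREEN). Results expressed as percent inhibition versus untreated cells.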

Substance | IC50 [1] | percent inhibition of human Factor 11 mRNA relative to untreated control cells ([1]; 2.34 nM) | percent inhibition of human Factor 11 mRNA relative to untreated control cells ([1]; 4.69 nM) | percent inhibition of human Factor 11 mRNA relative to untreated control cells ([1]; 9.375 nM) | percent inhibition of human Factor 11 mRNA relative to untreated control cells ([1]; 18.75 nM) | percent inhibition of human Factor 11 mRNA relative to untreated control cells ([1]; 37.5 nM) | percent inhibition of human Factor 11 mRNA relative to untreated control cells ([1]; 75 nM) | Half-life in the liver and kidney [2] | IC50 [3] | percent inhibition of Factor 11 at 9.375 nM [3] | percent inhibition of Factor 11 at 18.75 nM [3] | percent inhibition of Factor 11 at 37.5 nM [3] | percent inhibition of Factor 11 at 75 nM [3]
416826 (antisense ATGCCCTTCATGTCTAGGTC; 5-10-5 gapmer, further chemistry not given here) [compound 416826] | 15 nM | 15% | 22% | 32% | 54% | 76% | 90% | 13 days | 29 nM | 8% | 36% | 58% | 84%
416999 (antisense GCACAGTTTCTGGCAGGCCT; 2-13-5 gapmer chemistry, further chemistry not given here) [compound 416999] | 14 nM | 10% | 26% | 42% | 62% | 72% | 80% | 9 days | 30 nM | 24% | 37% | 55% | 73%
416925 (antisense GGTGCACAGTTTCTGGCAGG; 3-14-3 gapmer chemistry, further chemistry not given here) [compound 416925] | 13 nM | 24% | 34% | 45% | 56% | 67% | 72% | 12 days | 30 nM | 13% | 38% | 59% | 75%
416838 (antisense GCAACCGGGATGATGAGTGC; 5-10-5 gapmer, further chemistry not given here) [compound 416838] | 10 nM | 21% | 37% | 50% | 63% | 74% | 83% | 13 days | 19 nM | 31% | 51% | 64% | 86%
